According to ChEMBL document CHEMBL5352465, “Small molecules containing chalcogen elements (S, Se, Te) as new warhead to fight neglected tropical diseases” (Eur J Med Chem, 2023):

Tests used:
Trypanosoma cruzi [1] = assay: Antitrypanosomal activity against Trypanosoma cruzi epimastigote assessed as parasite growth inhibition; format: functional, organism-based
Leishmania infantum [2] = assay: Antileishmanial activity against Leishmania infantum promastigotes assessed as reduction in cell viability; format: functional, organism-based
Leishmania infantum [3] = assay: Antileishmanial activity against Leishmania infantum amastigotes assessed as inhibition of parasite growth; format: functional, organism-based
Trypanosoma cruzi [4] = assay: Antitrypanosomal activity against bloodstream Trypanosoma cruzi INC-5 strain trypomastigotes assessed as parasite growth inhibition incubated for 24 hrs by microscopic analysis; format: functional
Trypanosoma cruzi [5] = assay: Antitrypanosomal activity against bloodstream Trypanosoma cruzi NINOA strain trypomastigotes assessed as parasite growth inhibition incubated for 24 hrs by microscopic analysis; format: functional
Trypanosoma cruzi [6] = assay: Antitrypanosomal activity against Trypanosoma cruzi epimastigote Dm28c strain assessed as parasite growth inhibition incubated for 96 hrs by Neubauer chamber based light microscopic analysis; format: functional, organism-based
Trypanosoma cruzi [7] = assay: Antitrypanosomal activity against Trypanosoma cruzi epimastigote Dm28c strain assessed as parasite growth inhibition; format: functional, organism-based
[8] = Selectivity index, ratio of CC50 for cytotoxicity against mouse RAW264.7 cells to IC50 for antitrypanosomal activity against Trypanosoma cruzi amastigote; format: toxicity, cell-based; settings: read-out: Ratio CC50/IC50
[9] = Selectivity index, ratio of CC50 for cytotoxicity against mouse RAW264.7 cells to IC50 for antitrypanosomal activity against Trypanosoma cruzi epimastigote; format: toxicity, cell-based; settings: read-out: Ratio CC50/IC50
Trypanosoma cruzi [10] = assay: Antitrypanosomal activity against Trypanosoma cruzi amastigote assessed as parasite growth inhibition; format: functional, organism-based
Trypanosoma cruzi [11] = assay: Antitrypanosomal activity against bloodstream Trypanosoma cruzi Y strain trypomastigotes assessed as parasite growth inhibition incubated for 24 hrs by light microscopic analysis; format: functional, organism-based
Leishmania major = assay: Antileishmanial activity against Leishmania major promastigote assessed as inhibition of parasite growth; format: functional, organism-based
[12] = Selectivity index, ratio of CC50 for mouse J774.A1 cells to ratio of IC50 for antitrypanosomal activity against bloodstream Trypanosoma cruzi NINOA strain trypomastigotes; format: toxicity; settings: read-out: Ratio CC50/IC50
[13] = Selectivity index, ratio of CC50 for mouse J774.A1 cells to ratio of IC50 for antitrypanosomal activity against bloodstream Trypanosoma cruzi INC-5 strain trypomastigotes; format: toxicity; settings: read-out: Ratio CC50/IC50
Trypanosoma cruzi [14] = assay: Antitrypanosomal activity against Trypanosoma cruzi arequipa strain trypomastigotes assessed as parasite growth inhibition incubated for 48 hrs by resazurin staining based analysis; format: functional, organism-based
Trypanosoma cruzi [15] = assay: Antitrypanosomal activity against Trypanosoma cruzi arequipa strain amastigotes assessed as parasite growth inhibition incubated for 48 hrs by resazurin staining based analysis; format: functional, organism-based
[16] = Selectivity index, ratio of CC50 for human WI26VA4 cells to ratio of IC50 for antileishmanial activity against Leishmania infantum MHOM/BR/74/PP75 promastigote; format: toxicity; settings: read-out: Ratio CC50/IC50
[17] = Selectivity index, ratio of CC50 for human WI26VA4 cells to ratio of IC50 for antileishmanial activity against Leishmania braziliensis MHOM/BR/75/M2903 promastigote; format: toxicity; settings: read-out: Ratio CC50/IC50
Leishmania infantum [18] = assay: Antileishmanial activity against Leishmania infantum MHOM/BR/74/PP75 strain promastigotes assessed as reduction in cell viability incubated for 48 hrs by MTT assay; format: functional, organism-based; settings: MHOM/BR/74/PP75, 48 h
Leishmania braziliensis = assay: Antileishmanial activity against Leishmania braziliensis MHOM/BR/75/M2903 strain promastigotes assessed as reduction in cell viability incubated for 48 hrs by MTT assay; format: functional, organism-based; settings: MHOM/BR/75/M2903, 48 h
Trypanosoma cruzi [19] = assay: Antitrypanosomal activity against Trypanosoma cruzi arequipa strain epimastigotes assessed as parasite growth inhibition incubated for 48 hrs by resazurin staining based analysis; format: functional, organism-based
Leishmania amazonensis = assay: Antileishmanial activity against Leishmania amazonensis promastigotes assessed as inhibition of parasite growth; format: functional, organism-based
Leishmania infantum [20] = assay: Antileishmanial activity against Leishmania infantum promastigotes assessed as inhibition of parasite growth; format: functional, organism-based

`NC(=S)N/C=N/c1c(C(F)(F)F)nn(-c2ccccc2)c1-c1ccccc1` showed an IC50 (Trypanosoma cruzi [1]) of 83.1 µM.

Work on `Cc1sc(N/N=C/c2ccccn2)nc1-c1ccc(Cl)c(Cl)c1` yielded an IC50 (Leishmania infantum [2]) of 5.52 µM.

`COc1ccc([Te]Cc2ccc(S(N)(=O)=O)cc2)cc1` gave an IC50 (Leishmania infantum [3]) of 6.14 µM.

For `Fc1cccc(CSc2nc3ccccc3s2)c1`, the LC50 (Trypanosoma cruzi [4]) was > 350 µM and the LC50 (Trypanosoma cruzi [5]) was > 350 µM.

`C/C(=N\NC(N)=S)c1cc(Cl)ccc1Cl` gave an IC50 (Trypanosoma cruzi [6]) of 6.6 µM.

`NS(=O)(=O)c1ccc(NC(=O)Cc2ccc(Cl)cc2)c(F)c1` showed an IC50 (Trypanosoma cruzi [7]) of 3.54 µM, a selectivity ratio [8] of 3 and a selectivity ratio [9] of 2. It also gave an IC50 (Trypanosoma cruzi [10]) of 2.83 µM.

`Brc1ccc(-c2csc(N/N=C/c3ccccn3)n2)cc1` gave an IC50 (Leishmania infantum [2]) of 3.12 µM.

`O=C1C(=O)c2ccccc2C2=C1CC(C[Se]c1ccc(Cl)cc1)O2` (configuration not stated) gave an IC50 (Trypanosoma cruzi [11]) of 58.3 µM.

Work on `NC(=S)N/C=N/c1c(C(F)(F)F)nn(-c2ccccc2)c1-c1ccc([N+](=O)[O-])cc1` yielded an IC50 (Trypanosoma cruzi [1]) of 45.7 µM.

Molecule `Oc1ccc(-c2nnc(-c3ccc4ncccc4c3)s2)c(O)c1` has an IC50 (Leishmania major) of 0.7 µM.

With `Cc1ccc([Te]Cc2ncc(-c3ccc(S(N)(=O)=O)cc3)[se]2)cc1` the IC50 (Leishmania infantum [3]) was 0.34 µM.

`CCOP(=O)(Nc1ccc([Se][Se]c2ccc(NP(=O)(OCC)OCC)cc2)cc1)OCC` showed an IC50 (Leishmania infantum [3]) of 0.17 µM.

With `c1ccc(CSc2nc3ccccc3s2)cc1` the LC50 (Trypanosoma cruzi [4]) was 336 µM, the selectivity ratio [12] was > 7.29 and the selectivity ratio [13] was > 2.68. The LC50 (Trypanosoma cruzi [5]) was 123 µM.

`O=C(Nc1ccc([Se][Se]c2ccc(NC(=O)c3cccs3)cc2)cc1)c1cccs1` gave an IC50 (Trypanosoma cruzi [14]) of 12.7 µM and an IC50 (Trypanosoma cruzi [15]) of 15.4 µM.

`C/C(=N\NC(N)=S)c1ccc(Cl)c(Cl)c1Cl` gave an IC50 (Trypanosoma cruzi [6]) of 29 µM.

With `Oc1cccc(-c2nnc(-c3ccc4ncccc4c3)s2)c1O` the IC50 (Leishmania major) was 0.04 µM.

`O=C1NC(=O)/C(=C/c2ccc(Cl)c(Cl)c2)S1` gave a selectivity ratio [16] of 1.85, a selectivity ratio [17] of 0.66 and an IC50 (Leishmania infantum [18]) of 23.4 µM. It also gave an IC50 (Leishmania braziliensis) of 65.7 µM.

Molecule `NS(=O)(=O)c1ccc(NC(=[Se])NC(=O)c2ccc3c(c2)OCO3)cc1` has an IC50 (Leishmania infantum [3]) of 5.28 µM.

With `COc1ccc(CSc2nc3ccccc3s2)cc1` the LC50 (Trypanosoma cruzi [4]) was 276 µM, the selectivity ratio [12] was > 2.92 and the selectivity ratio [13] was > 3.26. It also gave an LC50 (Trypanosoma cruzi [5]) of 308 µM.

`C/C(=N\Nc1nc(-c2ccc(Cl)c(Cl)c2)c(C)s1)c1ccccn1` gave an IC50 (Leishmania infantum [2]) of 2.73 µM.

`O=C(Nc1ccc([Se][Se]c2ccc(NC(=O)c3ccc(C(F)(F)F)cc3)cc2)cc1)c1ccc(C(F)(F)F)cc1` gave an IC50 (Trypanosoma cruzi [14]) of 2.4 µM and an IC50 (Trypanosoma cruzi [15]) of 5.4 µM.

In the case of `CC1(C)OC2=C(CC1[Se]c1cccs1)C(=O)C(=O)c1ccccc12` (configuration not stated), the IC50 (Trypanosoma cruzi [11]) is reported as 63.3 µM.

`N#Cc1ccc(C[Se][Se]Cc2ccc(C#N)cc2)cc1` showed an IC50 (Trypanosoma cruzi [14]) of 0.9 µM, an IC50 (Trypanosoma cruzi [19]) of 1.3 µM and an IC50 (Trypanosoma cruzi [15]) of 0.5 µM.

`NC(=S)N/C=N/c1c(C(F)(F)F)nn(-c2ccccc2)c1-c1ccc(Cl)cc1` gave an IC50 (Trypanosoma cruzi [1]) of 49.2 µM.

In the case of `COc1ccc(CC(=O)Nc2nnc(S(N)(=O)=O)s2)cc1`, the IC50 (Trypanosoma cruzi [7]) is reported as 6.69 µM, the selectivity ratio [8] is reported as 1 and the selectivity ratio [9] is reported as 1. For the same molecule, the IC50 (Trypanosoma cruzi [10]) was 3.27 µM.

With `CC1=CC[C@@H](C(C)(C)NC(=S)NN)CC1` the IC50 (Leishmania amazonensis) was 3 µM.

Molecule `NC(=S)N/N=C(/C=C/c1ccccc1)c1ccccc1` has an IC50 (Leishmania infantum [20]) of 14.7 µM and an IC50 (Leishmania infantum [3]) of 6.88 µM.

`O=C(Nc1ccc([Se][Se]c2ccc(NC(=O)c3ccc([N+](=O)[O-])cc3)cc2)cc1)c1ccc([N+](=O)[O-])cc1` showed an IC50 (Trypanosoma cruzi [14]) of 35.8 µM and an IC50 (Trypanosoma cruzi [15]) of 49.3 µM.

`Cc1ccc(S(=O)(=O)Nc2ccc([Se][Se]c3ccc(NS(=O)(=O)c4ccc(C)cc4)cc3)cc2)cc1` gave an IC50 (Trypanosoma cruzi [14]) of 3.7 µM, an IC50 (Trypanosoma cruzi [19]) of 5.1 µM and an IC50 (Trypanosoma cruzi [15]) of 4.2 µM.

In the case of `C/C(=N\Nc1nc(-c2ccc(F)cc2)cs1)c1ccccn1`, the IC50 (Leishmania infantum [2]) is reported as 0.42 µM.

`COP(=O)(Nc1ccc([Se][Se]c2ccc(NP(=O)(OC)OC)cc2)cc1)OC` gave an IC50 (Leishmania infantum [3]) of 0.33 µM.

With `CCC(C)Oc1cc(N)nc(Sc2cccc(Cl)c2)n1` (configuration not stated) the IC50 (Leishmania infantum [20]) was 29.4 µM and the IC50 (Leishmania infantum [3]) was > 0.25 µM.

For `Fc1ccc(CSc2nc3ccccc3s2)cc1`, the LC50 (Trypanosoma cruzi [4]) was > 350 µM and the LC50 (Trypanosoma cruzi [5]) was > 350 µM.

`O=C1NC(=O)/C(=C/c2cc(Cl)cc(Br)c2O)S1` showed a selectivity ratio [16] of 0.74, a selectivity ratio [17] of 0.55 and an IC50 (Leishmania infantum [18]) of 35.9 µM. It also gave an IC50 (Leishmania braziliensis) of 48.2 µM.

For `Fc1cccc(F)c1CSc1nc2ccccc2s1`, the LC50 (Trypanosoma cruzi [4]) was 260 µM, the selectivity ratio [12] was 4.48 and the selectivity ratio [13] was 1.91. It also gave an LC50 (Trypanosoma cruzi [5]) of 110 µM.
